± gives the expanded uncertainty stated by the source.
Details: 101.33 kPa, Liquid; for viscosity: Concentric cylinders viscometry; for mass density: Vibrating tube method

Structure (SMILES) | viscosity (293.15 K) | mass density (293.15 K) | viscosity (298.15 K) | mass density (298.15 K) | viscosity (303.15 K) | mass density (303.15 K) | viscosity (308.15 K) | mass density (308.15 K) | viscosity (313.15 K) | mass density (313.15 K) | viscosity (318.15 K) | mass density (318.15 K) | viscosity (323.15 K) | mass density (323.15 K)
C[C@H](O)C(=O)[O-].C[N+](C)(C)CCO | 5513 ± 1200 mPa·s | 1137.33 ± 11 kg/m3 | 3929 ± 820 mPa·s | 1133.94 ± 11 kg/m3 | 2903 ± 600 mPa·s | 1130.52 ± 11 kg/m3 | 2207 ± 460 mPa·s | 1127.05 ± 11 kg/m3 | 1728 ± 360 mPa·s | 1123.55 ± 11 kg/m3 | 1368 ± 280 mPa·s | 1120.11 ± 11 kg/m3 | 1110 ± 230 mPa·s | 1116.7 ± 11 kg/m3
C[N+](C)(C)CCO.[O-]c1cccc2cccnc12 [choline 8-quinolinolate] |  | 1162.71 ± 6.5 kg/m3 |  | 1159.75 ± 6.5 kg/m3 | 4870960 ± 1.2e+06 mPa·s | 1156.73 ± 6.4 kg/m3 | 2363490 ± 570000 mPa·s | 1153.91 ± 6.4 kg/m3 | 1331720 ± 310000 mPa·s | 1150.97 ± 6.4 kg/m3 | 755840 ± 180000 mPa·s | 1147.91 ± 6.4 kg/m3 | 338330 ± 77000 mPa·s | 1144.78 ± 6.4 kg/m3

Source: the NIST ThermoML archive (doi:10.1016/j.jct.2018.10.026)
